Reference: patent US9592300B2, “Methods of using redox-active surfactants to control polymer interactions” (WISCONSIN ALUMNI RESEARCH FOUNDATION, priority 2005, dated 2017)
Where two headings read alike, the source gives them in different places.

Legend:
[1] = system: COS-7 cells
Description: Preparation of lipoplexes for Transfection Assays.
Cells were then incubated for 48 hours and cell morphology and relative levels of EGFP expression were characterized using phase contrast and fluorescence microscopy.
For these experiments, cells were incubated with lipoplexes for four hours in serum-free medium, followed by incubation in fresh serum-containing medium (see Materials and Methods Section for complete description of transfection procedures).

[2] = QLS hydrodynamic size of BFDMA solutions without DNA; format: physicochemical; settings: 10 μM BFDMA, Opti-MEM, 25° C.
Description: (§1) 1) A solution of 100 μM reduced BFDMA was prepared by dissolving BFDMA (solid) in water.
(§2) 2) A solution of 100 μM oxidized BFDMA was prepared as follows: First, a […] reduced BFDMA solution was prepared by dissolving BFDMA (solid) in 1 mM Li2SO4 aqueous solution, and then the solution was oxidized electrochemically. The resultant oxidized BFDMA solution was diluted with water to give a solution of 100 μM oxidized BFDMA.
150 μl of 100 μM reduced/oxidized BFDMA solution was diluted with 150 μl of water, followed by the addition of 1.2 ml of Opti-MEM. The final BFDMA concentration was 10 μM. QLS measurements were made at 25° C. immediately after the samples were prepared.

[3] = system: COS-7 cells; assay: Live/dead cytotoxicity assay of lipoplexes
[4] = system: COS-7 cells; settings: for concentrations at which maximum gene expression is observed: medium with 10% fetal bovine serum
[5] = system: pGFP; assay: QLS hydrodynamic size of BFDMA/DNA complexes; format: physicochemical; settings: 10 μM BFDMA, 2.4 μg/ml DNA, Opti-MEM, 25° C.
Description: as §1, §2
1) 150 μl of 100 μM reduced/oxidized BFDMA solution was diluted with 150 μl of 24 μg/ml pGFP aqueous solution, and the solution was allowed to stand for 20 min at room temperature. 1.2 ml of Opti-MEM was added to the solution to yield a final BFDMA concentration of 10 μM and a final DNA concentration of 2.4 μg/ml. QLS measurements were made at 25° C. immediately after the samples were prepared.

[6] = system: pEGFP-N1; settings: serum-free cell culture medium;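 further: dynamic light scattering of lipoplexes formed from BFDMA and pEGFP-N1 plasmid (2.4 µg/ml), scattering angles 30° to 110°, autocorrelation functions analysed with CONTIN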
[7] = format: physicochemical; settings: 0.1% (w/w) EHEC, 1M Li2SO4, pH 2.5
Description: Surfactant-ethyl(hydroxylethyl) cellulose (EHEC) interactions were characterized by observing the clouding temperature of solutions of EHEC containing various concentrations of surfactant.
Sample Preparation. Three samples of each solution were prepared to assess reproducibility. […] The EHEC solution was filtered through 0.22 μm GV Millipore filter, placed under vacuum for 30-45 minutes, then bubbled with argon for another 30-45 minutes. This deaeration procedure was performed for all solutions, including solutions of DTAB.
The solutions of polymer, salt, and surfactant were then mixed to form 0.1 wt % EHEC, 0.1M Li2SO4, and the desired concentration of surfactant. These solutions were deaerated three times and bubbled with argon inside airtight containers. These solutions were stored at 25° C. and measured after 3 hours and 1 day.
They were simply filtered, mixed to the desired concentrations, and stored for one day before measurements of cloud points and light scattering were performed.
Cloud Point Measurements. Solution of EHEC and surfactant were immersed in a temperature bath controlled to within 0.1° C. The temperature was increased by 1° C. every 10 minutes and the solutions were visually inspected for clouding. […] The values reported in this study are based on clouding points measured upon increasing the temperature of the solutions.

[8] = Phase behaviour of FS with HM-EHEC; format: physicochemical; settings: 1 wt % HM-EHEC, 10 mM Li2SO4, pH 5
Text: The top layer had low viscosity (similar to that of water) and was mildly cloudy; the bottom layer was yellow and highly viscous, almost gel-like. As the concentration of reduced FS increased, the top layer became more cloudy and the bottom layer became less viscous (up to 5 mmolal). As the concentration of reduced FS was decreased (down to 0.1 mmolal), the top layer cleared and the bottom layer became less viscous. […] The solutions made with oxidized FS were faintly blue and cloudy as the concentration increased (from 0.1 to 0.5 mmolal).

[9] = [BFDMA] 6 μM, listed as Red. BFDMA
[10] = [BFDMA] 8 μM, listed as Red. BFDMA
[11] = [BFDMA] 10 μM, listed as Red. BFDMA
[12] = [BFDMA] 20 μM, listed as Red. BFDMA
[13] = [BFDMA] 60 μM, listed as Red. BFDMA
[14] = [BFDMA] 6 μM, listed as Ox. BFDMA
[15] = [BFDMA] 8 μM, listed as Ox. BFDMA
[16] = [BFDMA] 10 μM, listed as Ox. BFDMA
[17] = [BFDMA] 20 μM, listed as Ox. BFDMA
[18] = [BFDMA] 60 μM, listed as Ox. BFDMA

C[N+](C)(CCCCCCCCCCC[c-]1cccc1)CCCCCCCCCCC[c-]1cccc1.[Br-].[Fe+2].[Fe+2].c1cc[cH-]c1.c1cc[cH-]c1 [reduced BFDMA, bis(11-ferrocenylundecyl)dimethylammonium bromide]
EGFP expression ([1]; 2 μM lipid, 4 h exposure in serum-free medium, 48 h): relatively low levels | EGFP expression (transfection) ([1]; 10 μM and 20 μM lipid, 4 h exposure in serum-free medium, 48 h): increased significantly | EGFP expression (transfection) ([1]; 40 μM lipid, 4 h exposure in serum-free medium, 48 h): significantly reduced | cell death by phase contrast microscopy ([1]; concentrations above 40 μM): Significant cell death | hydrodynamic size of aggregates w/o DNA ([2]; time 0 min, listed as red): 472.8 nm | hydrodynamic size of aggregates w/o DNA ([2]; time 120 min, listed as red): 1214 nm | hydrodynamic size of aggregates w/o DNA ([2]; time 240 min, listed as red): 1090.3 nm | cytotoxicity ([3]; 2 hours exposure, 2 μM to 10 μM): not cytotoxic | cytotoxicity ([3]; 2 hours exposure, 20 μM): increases slightly | cytotoxicity ([3]; 2 hours exposure, 40 μM and 60 μM): substantially cytotoxic | cytotoxicity ([3]; 12 hours exposure, 6 μM to 10 μM, versus two or four hours): more cytotoxic | cytotoxicity ([3]; 12 hours exposure, 20 μM): cytotoxic | cytotoxicity ([3]; two or four hours exposure, 20 μM): not substantially cytotoxic | luciferase expression (normalized to total cell protein) ([4]; 2 hours exposure, serum-free, 2 μM and 40 μM and 60 μM): low | luciferase expression (normalized to total cell protein) ([4]; 2 hours exposure, serum-free, 4 μM to 20 μM): significantly higher | luciferase expression versus Lipofectamine 2000 and TransIT-LT1 ([4]; four and twelve hours exposure, serum-free, 6 μM to 20 μM): comparable to or measured to be in excess of | concentrations at which maximum gene expression is observed ([4]; four hours exposure): 20 µM and 40 µM | hydrodynamic size of aggregates w/ DNA ([5]; time 0 min, listed as red): 689.7 nm | hydrodynamic size of aggregates w/ DNA ([5]; time 120 min, listed as red): 2613.9 nm | hydrodynamic size of aggregates w/ DNA ([5]; time 240 min, listed as red): 2995.5 nm | Number-Avg Diameter ([6]; [BFDMA] 2 μM, 600 ng DNA, listed as Red. BFDMA): 158 (±64) nm | Intensity-Avg Diameter ([6]; [BFDMA] 2 μM, listed as Red. BFDMA): 369 (±74) nm | Intensity-Avg Diameter [6, 9]: 603 (±262) nm | Number-Avg Diameter [6, 9]: 231 (±88) nm | Intensity-Avg Diameter [6, 10]: 951 (±504) nm | Number-Avg Diameter [6, 10]: 297 (±126) nm | Intensity-Avg Diameter [6, 11]: 1118 (±426) nm | Number-Avg Diameter [6, 11]: 219 (±126) nm | Intensity-Avg Diameter [6, 12]: 2766 (±725) nm | Number-Avg Diameter [6, 12]: 1490 (±750) nm | Intensity-Avg Diameter [6, 13]: 4777 (±1350) nm | Number-Avg Diameter [6, 13]: 1921 (±1220) nm

O=S(=O)([O-])[O-].[Li+].[Li+] [Li2SO4]
clouding temperature [7]: less than 6 °C

C[N+](C)(CCCCCCCCCCC[c-]1cccc1)CCCCCCCCCCC[c-]1cccc1.[Br-].[Fe+2].[Fe+2].c1cc[cH-]c1.c1cc[cH-]c1 [oxidized BFDMA, bis(11-ferrocenylundecyl)dimethylammonium bromide]
EGFP expression (cell transfection) ([1]; 20 μM lipid, 4 h exposure in serum-free medium, 48 h): relatively high levels | EGFP gene expression, generally ([1]; 2-40 μM lipid, 4 h exposure in serum-free medium, 48 h): very low levels | hydrodynamic size of aggregates w/o DNA ([2]; time 0 min, listed as ox): 363.4 nm | hydrodynamic size of aggregates w/o DNA ([2]; time 120 min, listed as ox): 496 nm | hydrodynamic size of aggregates w/o DNA ([2]; time 240 min, listed as ox): 511 nm | cytotoxicity relative to DNA alone or commercial controls ([3]; 2 hours exposure, any concentration evaluated (2 μM to 60 μM), OptiMEM): not cytotoxic | toxicity ([3]; 4 hours exposure, e.g. 40 μM and 60 μM): increases at higher concentrations | levels of gene expression versus reduced BFDMA ([4]; 2 hours exposure, serum-free): dramatically lower | luciferase expression ([4]; 12 hour exposure, serum-free, 20 μM): in excess of expression mediated by reduced BFDMA | concentrations at which maximum gene expression is observed ([4]; four hours exposure): 40 µM and 60 µM | hydrodynamic size of aggregates w/ DNA ([5]; time 0 min, listed as ox): 209.6 nm | hydrodynamic size of aggregates w/ DNA ([5]; time 120 min, listed as ox): 221.4 nm | hydrodynamic size of aggregates w/ DNA ([5]; time 240 min, listed as ox): 297.2 nm | Number-Avg Diameter ([6]; [BFDMA] 2 μM, 600 ng DNA, listed as Ox. BFDMA): 89 (±40) nm | Intensity-Avg Diameter ([6]; [BFDMA] 2 μM, listed as Ox. BFDMA): 196 (±86) nm | Intensity-Avg Diameter [6, 14]: 217 (±58) nm | Number-Avg Diameter [6, 14]: 64 (±25) nm | Intensity-Avg Diameter [6, 15]: 228 (±100) nm | Number-Avg Diameter [6, 15]: 86 (±37) nm | Intensity-Avg Diameter [6, 16]: 266 (±212) nm | Number-Avg Diameter [6, 16]: 110 (±55) nm | Number-Avg Diameter ([6]; [BFDMA] 20 μM): ca. 610 nm | Intensity-Avg Diameter [6, 17]: 1163 (±150) nm | Number-Avg Diameter [6, 17]: 611 (±183) nm | Intensity-Avg Diameter [6, 18]: 1497 (±340) nm | Number-Avg Diameter [6, 18]: 1254 (±512) nm

C[N+](C)(CCCCCCCCCCC[c-]1cccc1)CCCCCCCCCCC[c-]1cccc1.[Br-].[Fe+2].[Fe+2].c1cc[cH-]c1.c1cc[cH-]c1 [BFDMA, bis(11-ferrocenylundecyl)dimethylammonium bromide]
transfection activity following electrochemical cycling (EGFP expression) ([1]; oxidized at 500 mV, then reduced at −44 mV prior to contact with DNA): retains transfection activity | magnitude of gene expression in presence of serum relative to serum-free medium ([4]; four hours exposure, 10% fetal bovine serum): approximately one order of magnitude lower

11-ferrocenylundecylsulfonate [reduced FS]
liquid-liquid phase separation [8]: caused a liquid-liquid phase separation

11-ferrocenylundecylsulfonate [oxidized FS]
liquid-liquid phase separation [8]: did not form two coexisting liquid phases
